Laboratory results reported in US20130072430A1, “METHODS FOR TREATMENT OR PROPHYLAXIS OF KIDNEY OR LIVER DYSFUNCTION” (NPS PHARMACEUTICALS, INC., priority 2010, published 2013).

System: Human patients with short bowel syndrome
Experiment: Example 1: kidney diagnostic biomarkers (urea nitrogen, creatinine, GFR) in short bowel syndrome patients, every four weeks for 24 weeks
Assay type: in vivo
Description: Human patients with short bowel syndrome were divided into three groups: a control group (16 total individuals) to receive placebo, an experimental group (35 total individuals) to receive teduglutide at 0.05 mg/kg/day throughout the study, and an experimental group (32 total individuals) to receive teduglutide at 0.1 mg/kg/day throughout the study. Patients were treated by subcutaneous injection of placebo or the appropriate dose of teduglutide. As individuals with short bowel syndrome are likely to experience associated liver and kidney disease, known biomarkers of liver and kidney function were monitored every four weeks, for 24 weeks. The liver biomarkers tested included total bilirubin, ALT and AST and ALP. The kidney biomarkers tested included urea nitrogen, creatinine and GFR. Before administration of placebo or teduglutide, diagnostic biomarker levels were tested to establish a baseline for each individual.
To visualize the effect of GLP-2 on the levels of the diagnostic biomarkers, the average change from baseline was calculated for the placebo and teduglutide treated groups for each visit after a baseline was established. The average change from baseline of each group is depicted in FIGS. […]. The numerical figures for each diaanostic biomarker at each time point are depicted in Table 1.
The raw data for this sorting is reproduced in Table 2 below.

[1] = Week 12, range >5%, teduglutide 0.1 mg/kg/day
[2] = Week 12, range −5%<= and <=5%, teduglutide 0.05 mg/kg/day
[3] = Week 12, range −5%<= and <=5%, teduglutide 0.1 mg/kg/day
[4] = Week 16, range <−5%, teduglutide 0.05 mg/kg/day
[5] = Week 16, range <−5%, teduglutide 0.1 mg/kg/day
[6] = Week 16, range >5%, teduglutide 0.05 mg/kg/day
[7] = Week 16, range >5%, teduglutide 0.1 mg/kg/day
[8] = Week 16, range −5%<= and <=5%, teduglutide 0.05 mg/kg/day
[9] = Week 16, range −5%<= and <=5%, teduglutide 0.1 mg/kg/day
[10] = Week 20, range <−5%, teduglutide 0.05 mg/kg/day
[11] = Week 20, range <−5%, teduglutide 0.1 mg/kg/day
[12] = Week 20, range >5%, teduglutide 0.05 mg/kg/day
[13] = Week 20, range >5%, teduglutide 0.1 mg/kg/day
[14] = Week 20, range −5%<= and <=5%, teduglutide 0.05 mg/kg/day
[15] = Week 20, range −5%<= and <=5%, teduglutide 0.1 mg/kg/day
[16] = Week 24, range <−5%, teduglutide 0.05 mg/kg/day
[17] = Week 24, range <−5%, teduglutide 0.1 mg/kg/day
[18] = Week 24, range >5%, teduglutide 0.05 mg/kg/day
[19] = Week 24, range >5%, teduglutide 0.1 mg/kg/day
[20] = Week 24, range −5%<= and <=5%, teduglutide 0.05 mg/kg/day
[21] = Week 24, range −5%<= and <=5%, teduglutide 0.1 mg/kg/day

## CC[C@H](C)[C@H](NC(=O)[C@H](Cc1ccccc1)NC(=O)[C@H](CC(=O)O)NC(=O)[C@H](CCCNC(=N)N)NC(=O)[C@H](C)NC(=O)[C@H](C)NC(=O)[C@H](CC(C)C)NC(=O)[C@H](CC(N)=O)NC(=O)[C@H](CC(=O)O)NC(=O)[C@H](CC(C)C)NC(=O)[C@@H](NC(=O)[C@@H](NC(=O)[C@H](CC(N)=O)NC(=O)[C@H](CCSC)NC(=O)[C@H](CCC(=O)O)NC(=O)[C@H](CC(=O)O)NC(=O)[C@H](CO)NC(=O)[C@H](Cc1ccccc1)NC(=O)[C@H](CO)NC(=O)CNC(=O)[C@H](CC(=O)O)NC(=O)CNC(=O)[C@@H](N)Cc1c[nH]cn1)[C@@H](C)O)[C@@H](C)CC)C(=O)N[C@@H](CC(N)=O)C(=O)N[C@@H](Cc1c[nH]c2ccccc12)C(=O)N[C@@H](CC(C)C)C(=O)N[C@H](C(=O)N[C@@H](CCC(N)=O)C(=O)N[C@H](C(=O)N[C@@H](CCCCN)C(=O)N[C@H](C(=O)N[C@H](C(=O)N[C@@H](CC(=O)O)C(=O)O)[C@@H](C)O)[C@@H](C)CC)[C@@H](C)O)[C@@H](C)CC [teduglutide]
[1]
  CREATININE (RATE BLANKED) change from baseline: patients in range, n(%): 17(53.1%)
  GFR change from baseline: patients in range, n(%): 9(28.1%)
  UREA NITROGEN change from baseline: patients in range, n(%): 14(43.8%)
[2]
  CREATININE (RATE BLANKED) change from baseline: patients in range, n(%): 4(11.4%)
  GFR change from baseline: patients in range, n(%): 5(14.3%)
  UREA NITROGEN change from baseline: patients in range, n(%): 4(11.4%)
[3]
  CREATININE (RATE BLANKED) change from baseline: patients in range, n(%): 4(12.5%)
  GFR change from baseline: patients in range, n(%): 10(31.3%)
  UREA NITROGEN change from baseline: patients in range, n(%): 3(9.4%)
[4]
  CREATININE (RATE BLANKED) change from baseline: patients in range, n(%): 8(22.9%)
  GFR change from baseline: patients in range, n(%): 7(20.0%)
  UREA NITROGEN change from baseline: patients in range, n(%): 12(34.3%)
[5]
  CREATININE (RATE BLANKED) change from baseline: patients in range, n(%): 10(31.3%)
  GFR change from baseline: patients in range, n(%): 12(37.5%)
  UREA NITROGEN change from baseline: patients in range, n(%): 9(28.1%)
[6]
  CREATININE (RATE BLANKED) change from baseline: patients in range, n(%): 8(22.9%)
  GFR change from baseline: patients in range, n(%): 11(31.4%)
  UREA NITROGEN change from baseline: patients in range, n(%): 10(28.6%)
[7]
  CREATININE (RATE BLANKED) change from baseline: patients in range, n(%): 12(37.5%)
  GFR change from baseline: patients in range, n(%): 12(37.5%)
  UREA NITROGEN change from baseline: patients in range, n(%): 9(28.1%)
[8]
  CREATININE (RATE BLANKED) change from baseline: patients in range, n(%): 12(34.3%)
  GFR change from baseline: patients in range, n(%): 10(28.6%)
  UREA NITROGEN change from baseline: patients in range, n(%): 6(17.1%)
[9]
  CREATININE (RATE BLANKED) change from baseline: patients in range, n(%): 8(25.0%)
  GFR change from baseline: patients in range, n(%): 6(18.8%)
  UREA NITROGEN change from baseline: patients in range, n(%): 12(37.5%)
[10]
  CREATININE (RATE BLANKED) change from baseline: patients in range, n(%): 9(25.7%)
  GFR change from baseline: patients in range, n(%): 10(28.6%)
  UREA NITROGEN change from baseline: patients in range, n(%): 13(37.1%)
[11]
  CREATININE (RATE BLANKED) change from baseline: patients in range, n(%): 7(21.9%)
  GFR change from baseline: patients in range, n(%): 11(34.4%)
  UREA NITROGEN change from baseline: patients in range, n(%): 12(37.5%)
[12]
  CREATININE (RATE BLANKED) change from baseline: patients in range, n(%): 10(28.6%)
  GFR change from baseline: patients in range, n(%): 10(28.6%)
  UREA NITROGEN change from baseline: patients in range, n(%): 7(20.0%)
[13]
  CREATININE (RATE BLANKED) change from baseline: patients in range, n(%): 13(40.6%)
  GFR change from baseline: patients in range, n(%): 8(25.0%)
  UREA NITROGEN change from baseline: patients in range, n(%): 11(34.4%)
[14]
  CREATININE (RATE BLANKED) change from baseline: patients in range, n(%): 8(22.9%)
  GFR change from baseline: patients in range, n(%): 7(20.0%)
  UREA NITROGEN change from baseline: patients in range, n(%): 7(20.0%)
[15]
  CREATININE (RATE BLANKED) change from baseline: patients in range, n(%): 9(28.1%)
  GFR change from baseline: patients in range, n(%): 10(31.3%)
  UREA NITROGEN change from baseline: patients in range, n(%): 6(18.8%)
[16]
  CREATININE (RATE BLANKED) change from baseline: patients in range, n(%): 8(22.9%)
  GFR change from baseline: patients in range, n(%): 8(22.9%)
[17]
  CREATININE (RATE BLANKED) change from baseline: patients in range, n(%): 11(34.4%)
  GFR change from baseline: patients in range, n(%): 6(18.8%)
  UREA NITROGEN change from baseline: patients in range, n(%): 14(43.8%)
[18]
  CREATININE (RATE BLANKED) change from baseline: patients in range, n(%): 9(25.7%)
  GFR change from baseline: patients in range, n(%): 10(28.6%)
  UREA NITROGEN change from baseline: patients in range, n(%): 7(20.0%)
[19]
  CREATININE (RATE BLANKED) change from baseline: patients in range, n(%): 9(28.1%)
  GFR change from baseline: patients in range, n(%): 14(43.8%)
  UREA NITROGEN change from baseline: patients in range, n(%): 13(40.6%)
[20]
  CREATININE (RATE BLANKED) change from baseline: patients in range, n(%): 9(25.7%)
  GFR change from baseline: patients in range, n(%): 8(22.9%)
  UREA NITROGEN change from baseline: patients in range, n(%): 2(5.7%)
[21]
  CREATININE (RATE BLANKED) change from baseline: patients in range, n(%): 9(28.1%)
  GFR change from baseline: patients in range, n(%): 9(28.1%)
  UREA NITROGEN change from baseline: patients in range, n(%): 2(6.3%)
Both groups receiving teduglutide
  percent of the group experiencing a decrease in GFR greater than 5% versus placebo: always less than the percent of the group receiving placebo
Groups receiving teduglutide
  creatinine levels, average change versus baseline (FIG. 9): remained stable or decreased slightly
